Test results published in patent US12421254B2, “KRAS modulators and uses thereof” (Quanta Therapeutics, Inc., priority 2023, dated 2025).

What was measured:
[1] = target: GST-tagged KRAS-G12D (2-169) (Homo sapiens, UniProt P01116, G12D); test: Nucleotide exchange assay (NEA), SOS-mediated, HTRF, KRAS G12D; type: biochemical; conditions: Table 4; IC50 extracted at 30 min; 20 nM SOScat; read-out: NEA G12D IC50
How it was run: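 Compound preincubated 1 h at RT with 0.25 nM GST-KRAS-G12D (2-169) and anti-GST Tb donor, then 20 nM SOS1cat (564-1049) and 150 nM GTP-DY-647P1 added; pH 7.3 HEPES buffer with MgCl2 and DTT. HTRF monitored at RT; % inhibition versus DMSO and no-SOS blank, 4-parameter IC50 taken at 30 min.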

[2] = target: GST-tagged KRAS-G12V (2-169) (Homo sapiens, UniProt P01116, G12V); test: Nucleotide exchange assay (NEA), SOS-mediated, HTRF, KRAS G12V; type: biochemical; conditions: Table 4; IC50 extracted at 90 min; 80 nM SOS
How it was run: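 GST-KRAS-G12V (2-169), 0.25 nM, pre-incubated 1 h at RT with compound, then SOS1cat (564-1049) 80 nM and GTP-DY-647P1 150 nM added in HEPES pH 7.3 buffer with MgCl2 and DTT. HTRF via anti-GST Tb cryptate read over 90 min; IC50 from 4-parameter fit at 90 min, blanked to no-SOS reactions.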

GST-tagged KRAS-G12D (2-169), sequence (P01116 2-169 isoform P01116-2 G12D): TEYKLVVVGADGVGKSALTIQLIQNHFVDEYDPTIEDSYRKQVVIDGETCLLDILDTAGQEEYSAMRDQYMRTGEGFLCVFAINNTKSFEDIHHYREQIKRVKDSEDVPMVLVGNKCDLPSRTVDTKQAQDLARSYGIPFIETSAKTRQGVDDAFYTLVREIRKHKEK
GST-tagged KRAS-G12V (2-169), sequence (P01116 2-169 isoform P01116-2 G12V): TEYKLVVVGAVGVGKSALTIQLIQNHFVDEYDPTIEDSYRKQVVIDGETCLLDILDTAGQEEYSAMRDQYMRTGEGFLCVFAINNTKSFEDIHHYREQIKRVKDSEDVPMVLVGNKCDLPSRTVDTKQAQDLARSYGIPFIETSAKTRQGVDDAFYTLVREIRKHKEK

Row | Compound | IC50 [1] | IC50 [2]
1 | CC(c1cccnc1N)N(C)c1nc(OC[C@@]23CCCN2C[C@H](F)C3)nc(N2CC3(CCc4sc(N)c(C#N)c43)C2)n1 (stereo partly drawn) [Compound 83, 2-amino-1′-[4-[1-(2-amino-3-pyridyl)ethyl-methyl-amino]-6-[[(2R,8S)-2-fluoro-1,2,3,5,6,7-hexahydropyrrolizin-8-yl]methoxy]-1,3,5-triazin-2-yl]spiro[5,6-dihydrocyclopenta[b]thiophene-4,3′-azetidine]-3-carbonitrile] | < 10 nM | < 10 nM
2 | CC(Nc1nc(OC[C@@]23CCCN2C[C@H](F)C3)nc(N2CC3(CCc4sc(N)c(C#N)c43)C2)n1)c1cccnc1N (stereo partly drawn) [Compound 88, 2-amino-1′-[4-[1-(2-amino-3-pyridyl)ethylamino]-6-[[(2R,8S)-2-fluoro-1,2,3,5,6,7-hexahydropyrrolizin-8-yl]methoxy]-1,3,5-triazin-2-yl]spiro[5,6-dihydrocyclopenta[b]thiophene-4,3′-azetidine]-3-carbonitrile] | 100 to 1000 nM | < 10 nM
3 | N#Cc1c(N)sc2c1C1(CC2)CN(c2nc(OCC3(CN4CCOCC4)CC3)nc(N3CCCC(O)(CO)C3)n2)C1 (stereo not shown) [Compound 95, 2-amino-1′-[4-[3-hydroxy-3-(hydroxymethyl)-1-piperidyl]-6-[[1-(morpholinomethyl)cyclopropyl]methoxy]-1,3,5-triazin-2-yl]spiro[5,6-dihydrocyclopenta[b]thiophene-4,3′-azetidine]-3-carbonitrile] | 10 to 100 nM | 10 to 100 nM
4 | N#Cc1c(N)sc2c1C1(CC2)CN(c2nc(OC[C@@]34CCCN3C[C@H](F)C4)nc(N3CCSc4ncccc4C3)n2)C1 [Compound 99, 2-amino-1′-[4-(3,5-dihydro-2H-pyrido[3,2-f][1,4]thiazepin-4-yl)-6-[[(2R,8S)-2-fluoro-1,2,3,5,6,7-hexahydropyrrolizin-8-yl]methoxy]-1,3,5-triazin-2-yl]spiro[5,6-dihydrocyclopenta[b]thiophene-4,3′-azetidine]-3-carbonitrile] | 1000 to 20000 nM | 100 to 1000 nM
5 | CC(c1nccnc1N)N(C)c1nc(OC[C@@]23CCCN2C[C@H](F)C3)nc(N2CC3(CCc4sc(N)c(C#N)c43)C2)n1 (stereo partly drawn) [Compound 102, 2-amino-1′-[4-[1-(3-aminopyrazin-2-yl)ethyl-methyl-amino]-6-[[(2R,8S)-2-fluoro-1,2,3,5,6,7-hexahydropyrrolizin-8-yl]methoxy]-1,3,5-triazin-2-yl]spiro[5,6-dihydrocyclopenta[b]thiophene-4,3′-azetidine]-3-carbonitrile] | 10 to 100 nM | < 10 nM
6 | CC(c1cccnc1N)N(CCO)c1nc(OC[C@@]23CCCN2C[C@H](F)C3)nc(N2CC3(CCc4sc(N)c(C#N)c43)C2)n1 (stereo partly drawn) [Compound 110, 2-amino-1′-[4-[1-(2-amino-3-pyridyl)ethyl-(2-hydroxyethyl)amino]-6-[[(2R,8S)-2-fluoro-1,2,3,5,6,7-hexahydropyrrolizin-8-yl]methoxy]-1,3,5-triazin-2-yl]spiro[5,6-dihydrocyclopenta[b]thiophene-4,3′-azetidine]-3-carbonitrile] | < 10 nM | < 10 nM
7 | CC(c1cccnc1N)N(C)c1nc(OC[C@@H]2CCC(=O)N2)nc(N2CC3(CCc4sc(N)c(C#N)c43)C2)n1 (stereo partly drawn) [Compound 112, 2-amino-1′-[4-[1-(2-amino-3-pyridyl)ethyl-methyl-amino]-6-[[(2S)-5-oxopyrrolidin-2-yl]methoxy]-1,3,5-triazin-2-yl]spiro[5,6-dihydrocyclopenta[b]thiophene-4,3′-azetidine]-3-carbonitrile] | 1000 to 20000 nM | 100 to 1000 nM
8 | CC(c1cccnc1N)N(C)c1nc(OC[C@@]23CCCN2C[C@H](F)C3)nc(N2CC3(C2)SCc2sc(N)c(C#N)c23)n1 (stereo partly drawn) [Compound 115, 2-amino-1′-[4-[1-(2-amino-3-pyridyl)ethyl-methyl-amino]-6-[[(2R,8S)-2-fluoro-1,2,3,5,6,7-hexahydropyrrolizin-8-yl]methoxy]-1,3,5-triazin-2-yl]spiro[6H-thieno[3,4-b]thiophene-4,3′-azetidine]-3-carbonitrile] | < 10 nM | < 10 nM
